Results as given in ChEMBL document CHEMBL1140437, “N-substituted cis-4a-(3-hydroxyphenyl)-8a-methyloctahydroisoquinolines are opioid receptor pure antagonists” (J Med Chem, 2005).

What was measured:
[1] = biological target: Delta-type opioid receptor (Homo sapiens) (UniProt P41143)
Description: Inhibition of DPDPE stimulated [35S]GTP-gamma-S binding to cloned human delta opioid receptor

[2] = biological target: Opioid receptors; delta & kappa (Homo sapiens) (UniProt P41145+P41143); experiment: Selectivity for cloned human delta opioid receptor over kappa opioid receptor; type: protein assay
[3] = biological target: Opioid receptors; mu & kappa (Homo sapiens) (UniProt P41145+P35372); experiment: Selectivity for cloned human mu opioid receptor over kappa opioid receptor; type: protein assay
[4] = biological target: Mu-type opioid receptor (Homo sapiens) (UniProt P35372)
Description: Inhibition of DAMGO stimulated [35S]GTP-gamma-S binding to cloned human mu opioid receptor

[5] = biological target: Kappa-type opioid receptor (Homo sapiens) (UniProt P41145)
Sequence of Kappa-type opioid receptor (Homo sapiens) (P41145 whole entry): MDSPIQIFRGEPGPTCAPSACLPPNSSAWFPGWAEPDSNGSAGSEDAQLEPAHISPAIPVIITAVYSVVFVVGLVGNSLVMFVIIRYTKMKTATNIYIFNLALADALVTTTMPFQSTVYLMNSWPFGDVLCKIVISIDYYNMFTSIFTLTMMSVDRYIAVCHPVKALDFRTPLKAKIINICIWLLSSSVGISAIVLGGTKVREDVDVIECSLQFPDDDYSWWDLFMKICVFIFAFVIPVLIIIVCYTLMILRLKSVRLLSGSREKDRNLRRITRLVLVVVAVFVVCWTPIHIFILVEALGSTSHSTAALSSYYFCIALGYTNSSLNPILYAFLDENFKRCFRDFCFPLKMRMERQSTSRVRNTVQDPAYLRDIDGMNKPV
Description: Inhibition of U69,593 stimulated [35S]GTP-gamma-S binding to cloned human kappa opioid receptor

Sequence of Opioid receptors; mu & kappa (Homo sapiens) (P35372 whole entry, looked up): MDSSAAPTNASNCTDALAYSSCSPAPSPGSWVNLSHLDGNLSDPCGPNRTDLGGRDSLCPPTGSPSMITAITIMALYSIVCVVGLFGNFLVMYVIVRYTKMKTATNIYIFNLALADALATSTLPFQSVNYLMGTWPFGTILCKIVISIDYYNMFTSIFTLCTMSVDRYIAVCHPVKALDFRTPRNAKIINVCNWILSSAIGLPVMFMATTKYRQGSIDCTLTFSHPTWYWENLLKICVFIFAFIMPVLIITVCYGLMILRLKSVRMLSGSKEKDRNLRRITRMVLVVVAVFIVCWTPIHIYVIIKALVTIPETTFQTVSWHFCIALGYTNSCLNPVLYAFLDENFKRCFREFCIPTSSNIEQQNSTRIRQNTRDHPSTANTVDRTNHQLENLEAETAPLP
Sequence of Opioid receptors; mu & kappa (Homo sapiens) (P41145 whole entry, looked up): as the sequence (P41145 whole entry) above
Sequence of Mu-type opioid receptor (Homo sapiens) (P35372 whole entry): as the sequence (P35372 whole entry, looked up) above
Sequence of Opioid receptors; delta & kappa (Homo sapiens) (P41143 whole entry, looked up): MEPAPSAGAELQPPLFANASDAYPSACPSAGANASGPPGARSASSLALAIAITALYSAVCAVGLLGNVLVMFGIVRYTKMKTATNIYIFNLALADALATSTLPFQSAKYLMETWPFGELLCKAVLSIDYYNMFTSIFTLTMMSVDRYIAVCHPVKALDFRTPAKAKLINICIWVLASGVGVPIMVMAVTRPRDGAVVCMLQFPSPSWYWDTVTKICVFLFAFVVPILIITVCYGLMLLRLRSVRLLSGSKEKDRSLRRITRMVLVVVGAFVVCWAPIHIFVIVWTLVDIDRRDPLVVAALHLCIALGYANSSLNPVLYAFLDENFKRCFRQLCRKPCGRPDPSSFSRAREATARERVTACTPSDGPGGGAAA
Sequence of Opioid receptors; delta & kappa (Homo sapiens) (P41145 whole entry, looked up): as the sequence (P41145 whole entry) above
Sequence of Delta-type opioid receptor (Homo sapiens) (P41143 whole entry): as the sequence (P41143 whole entry, looked up) above

SMILES | Ke [1] [nM] | Ratio Ke [2] | Ratio Ke [3] | Ke [4] [nM] | Ke [5] [nM]
CN1CC[C@]2(c3cccc(O)c3)CCCC[C@]2(C)C1 | 477 | 141 | 29 | 99.4 | 3.37
C[C@H]1CN(CC[C@H](O)C2CCCCC2)CC[C@@]1(C)c1cccc(O)c1 | 0.6 | – | – | 0.1 | –
C[C@]12CC[C@@H](NC(=O)C3(c4ccccc4)CCCC3)C[C@@]1(c1cccc(O)c1)CCN(CCCc1ccccc1)C2 | 6.46 | 3 | 0.8 | 1.46 | 1.93
Oc1ccc2c3c1O[C@H]1c4[nH]c5c(c4C[C@@]4(O)[C@@H](C2)N(CC2CC2)CC[C@]314)C[C@@]1(O)[C@H]2Cc3ccc(O)c4c3[C@@]1(CCN2CC1CC1)[C@H]5O4 | – | 110 | 475 | – | –
C[C@]12CCCC[C@@]1(c1cccc(O)c1)CCN(CCCc1ccccc1)C2 (relative stereo) | 12.4 | 12 | 0.8 | 0.8 | 1.03
C[C@]12CCCC[C@@]1(c1cccc(O)c1)CCN(CCc1ccccc1)C2 (relative stereo) | 18.9 | 7 | 0.3 | 0.84 | 2.84
C[C@]12CC[C@@H](NC(=O)CCN3CCCCC3)C[C@@]1(c1cccc(O)c1)CCN(CCCc1ccccc1)C2 (relative stereo) | 12.3 | 46 | 154 | 41.7 | 0.27
C[C@]12CC[C@@H](NC(=O)CCN3CCc4ccccc4C3)C[C@@]1(c1cccc(O)c1)CCN(CCCc1ccccc1)C2 (relative stereo) | 4.56 | 21 | 45 | 9.82 | 0.22
C[C@]12CC[C@@H](NC(=O)c3cc4ccccc4s3)C[C@@]1(c1cccc(O)c1)CCN(CCCc1ccccc1)C2 (relative stereo) | 1.01 | 2 | 25 | 11.3 | 0.46
